# From ChEMBL document CHEMBL1781981, “Identification of a novel series of 3-piperidinyl-5-sulfonylindazoles as potent 5-HT6 ligands” (Bioorg Med Chem Lett, 2009)
# Molecular target: 5-hydroxytryptamine receptor 6 (Homo sapiens, UniProt P50406)
# Experiment: Antagonist activity at human 5HT6 receptor expressed in HeLa cells assessed as inhibition of 5-HT-induced cAMP accumulation
# Format: functional, cell-based
# Sequence of 5-hydroxytryptamine receptor 6 (P50406 whole entry): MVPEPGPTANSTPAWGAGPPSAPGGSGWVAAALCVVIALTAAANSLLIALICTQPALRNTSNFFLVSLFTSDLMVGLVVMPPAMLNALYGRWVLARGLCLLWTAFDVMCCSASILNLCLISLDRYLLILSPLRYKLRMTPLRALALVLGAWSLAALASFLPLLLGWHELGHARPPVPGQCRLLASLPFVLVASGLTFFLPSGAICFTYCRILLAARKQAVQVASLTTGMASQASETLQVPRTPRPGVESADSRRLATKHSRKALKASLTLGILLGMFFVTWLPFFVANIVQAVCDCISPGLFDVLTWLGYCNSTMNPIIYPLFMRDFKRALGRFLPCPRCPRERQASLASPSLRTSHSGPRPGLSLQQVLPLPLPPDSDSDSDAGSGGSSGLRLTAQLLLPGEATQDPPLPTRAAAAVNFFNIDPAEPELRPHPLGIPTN
SMILES,IC50 [nM],Imax [%]
CC(C)c1ccc(S(=O)(=O)c2ccc3[nH]nc(C4CCN(C)CC4)c3c2)cc1,108,100
CN1CCC(c2n[nH]c3ccc(S(=O)(=O)c4cccc(Cl)c4)cc23)CC1,754,95
CN1CCC(c2n[nH]c3ccc(S(=O)(=O)c4cccc5ccccc45)cc23)CC1,251,100
CN1CCC(c2n[nH]c3ccc(S(=O)(=O)c4ccc5ccccc5c4)cc23)CC1,102,100
